Where two headings read alike, the source gives them in different places.
Tested on: HT-1080
Experiment: Modulatory profiling: Alamar Blue viability, lethal compound cotreated with death modulator (EC50, AUC)
Format: cell-based
Design: AUC, modulator HT.3MA / AUC, modulator HT.ALLN / AUC HT.ATA / AUC HT.ActD / AUC HT.BHA / AUC HT.BHT / AUC HT.BocD / AUC HT.CHX / AUC HT.Co2+ / AUC HT.DPQ / AUC HT.EGTA / AUC HT.Lmim / AUC HT.NAD+ / AUC HT.Nec-1 / AUC HT.SP600125 / AUC HT.TLCK / AUC HT.U0126: unit not given beside the values
Details: for AUC HT.ATA: HT-1080, modulator ATA; for AUC HT.ActD: HT-1080, modulator ActD; for AUC HT.BHA: HT-1080, modulator BHA; for AUC HT.BHT: HT-1080, modulator BHT; for AUC HT.BocD: HT-1080, modulator BocD; for AUC HT.CHX: HT-1080, modulator CHX; for AUC HT.Co2+: HT-1080, modulator Co2+; for AUC HT.CspA: HT-1080, modulator CspA; for AUC HT.DPQ: HT-1080, modulator DPQ; for AUC HT.Gd3+: HT-1080, modulator Gd3+; for AUC HT.LNAME: HT-1080, modulator LNAME; for AUC HT.Lmim: HT-1080, modulator Lmim; for AUC HT.NAD+: HT-1080, modulator NAD+; for AUC HT.NMMA: HT-1080, modulator NMMA; for AUC HT.Nec-1: HT-1080, modulator Nec-1; for AUC HT.Pepstatin: HT-1080, modulator Pepstatin; for AUC HT.SP600125: HT-1080, modulator SP600125; for AUC HT.TLCK: HT-1080, modulator TLCK; for AUC HT.U0126: HT-1080, modulator U0126; for HT.atoc (AUC) / HT.bCarotene (AUC) / HT.deferox (AUC) / HT.digoxin (AUC) / HT.trolox (AUC) / HT.zVAD (AUC) / EC50: HT-1080; for HT.atoc (AUC): modulator atoc; for HT.bCarotene (AUC): modulator bCarotene; for HT.deferox (AUC): modulator deferox; for HT.digoxin (AUC): modulator digoxin; for HT.trolox (AUC): modulator trolox; for HT.zVAD (AUC): modulator zVAD; for AUC, modulator HT.3MA / AUC, modulator HT.ALLN: HT-1080 cells, modulatory profile value (AUC); for AUC, modulator HT.3MA: lethal compound cotreated with modulator 3MA; for AUC, modulator HT.ALLN: lethal compound cotreated with modulator ALLN; for EC50: Homo sapiens, HT-1080, 48 h, 48 h

Row | Structure (SMILES) | AUC HT.ATA | AUC HT.ActD | AUC HT.BHA | AUC HT.BHT | AUC HT.BocD | AUC HT.CHX | AUC HT.Co2+ | AUC HT.CspA | AUC HT.DPQ | AUC HT.Gd3+ | AUC HT.LNAME | AUC HT.Lmim | AUC HT.NAD+ | AUC HT.NMMA | HT.atoc (AUC) | HT.bCarotene (AUC) | HT.deferox (AUC) | HT.digoxin (AUC) | HT.trolox (AUC) | HT.zVAD (AUC) | also measured
1 | CC[C@]1(O)C[C@@H]2CN(CCc3c([nH]c4ccccc34)[C@@](C(=O)OC)(c3cc4c(cc3OC)N(C)[C@H]3[C@@](O)(C(=O)OC)[C@H](OC(C)=O)[C@]5(CC)C=CCN6CC[C@]43[C@@H]65)C2)C1 [Vinbiastine] | 0.09963 | 0.05584 | −0.01651 | 0.01379 | 0.1256 | 0.06309 | 0.2269 | −0.1335 | 0.003688 | −0.002557 | −0.01231 | 0.126 | 0.1682 | −0.003516 | 0.1573 | 0.001945 | 0.2847 | 0.1245 | −0.001959 | 0.08924 | AUC HT.EGTA (HT-1080, modulator EGTA): 0.01055; AUC HT.Nec-1: −0.005874; AUC HT.Pepstatin: −0.0004474; AUC HT.SP600125: 0.002862; AUC HT.TLCK: 0.002362; AUC HT.U0126: 0.1372; AUC, modulator HT.3MA: 0.05249; AUC, modulator HT.ALLN: 0.1527
2 | CC(C)(C)C1CCc2c(sc(NC(=O)CN3CCNCC3)c2C(N)=O)C1 (centres unmarked) [CIL10] | 0.01743 | −0.01865 | −0.02863 | −0.08663 | 0.1385 | 0.05132 | 0.1226 | 0.004872 | 0.004305 | −0.02788 | 0.02616 | −0.02065 | 0.04087 | −0.009286 | 0.1034 | −0.01201 | −0.004319 | 0.01443 | −0.006674 | −0.01286 | AUC HT.EGTA (HT-1080, modulator EGTA): −0.007776; AUC HT.Nec-1: 0.03698; AUC HT.Pepstatin: −0.01087; AUC HT.SP600125: −0.009227; AUC HT.TLCK: −0.001631; AUC HT.U0126: 0.01126; AUC, modulator HT.3MA: −0.01982; AUC, modulator HT.ALLN: 0.1067
3 | CCOc1ccccc1-n1c(C(C)N2CCN(C(=O)COc3ccc(Cl)cc3)CC2)nc2ccccc2c1=O (centres unmarked) [erastin, reference compound] | −0.1315 | −0.1111 | 0.1748 | 0.1243 | −0.003341 | 0.05504 | −0.2142 | 0.02449 | 0.05672 | −0.01326 | −0.008731 | 0.2178 | −0.02996 | 0.006826 | 0.2643 | −0.0215 | 0.3025 | −0.03393 | 0.2077 | −0.07207 | AUC HT.EGTA (HT-1080, modulator EGTA): 0.01444; AUC HT.Nec-1: −0.02551; AUC HT.Pepstatin: −0.02573; AUC HT.SP600125: −0.03688; AUC HT.TLCK: 0.1167; AUC HT.U0126: 0.1525; AUC, modulator HT.3MA: −0.04578; AUC, modulator HT.ALLN: −0.06856
4 | CC1=CC(C)(C)Nc2ccc(OC(=O)c3cccnc3)cc21 [CIL47] | 0.07043 | 0.01588 | −0.04478 | −0.1469 | −0.009617 | 0.007874 | −0.2381 | 0.01761 | −0.02038 | −0.02263 | −0.01288 | −0.04173 | −0.02784 | −0.01195 | 0.04666 | −0.001832 | 0.01074 | 0.03489 | −0.03828 | −0.005894 | AUC HT.EGTA (HT-1080, modulator EGTA): 0.001051; AUC, modulator HT.3MA: 0.07294; AUC, modulator HT.ALLN: 0.2227
5 | Cc1ccc(O)c(/N=C/C=C/c2cccc(Br)c2)c1 [CIL27] | 0.04845 | 0.03171 | −0.0156 | −0.05537 | 0.003288 | 0.04576 | 0.04606 | −0.03639 | 0.02307 | −0.0168 | 0.001204 | −0.001055 | −0.0034 | −0.01331 | 0.04362 | −0.01166 | 0.1441 | 0.001262 | −0.05943 | −0.01508 | AUC HT.EGTA (HT-1080, modulator EGTA): 0.02604; AUC, modulator HT.3MA: 0.0766; AUC, modulator HT.ALLN: 0.1636
6 | Cc1cccnc1Nc1nc(-c2ccccn2)cs1 [CIL13] | 0.04672 | −0.04327 | −0.06288 | −0.104 | 0.09941 | 0.03999 | 0.2924 | 0.06243 | −0.01515 | −0.03072 | −0.07962 | −0.06102 | −0.04462 | −0.04118 | 0.1029 | 0.01006 | 0.05411 | 0.03512 | −0.03975 | 0.01164 | AUC HT.EGTA (HT-1080, modulator EGTA): 0.08353; AUC, modulator HT.3MA: 0.02535; AUC, modulator HT.ALLN: 0.01646; effect of cobalt (II) on lethality (modulatory profiles, CoCl2 supplementation): inhibited by cobalt (II)
7 | COc1nn(-c2ccccc2)c(=O)c(Cl)c1Cl [CIL23] | 0.01792 | 0.01969 | 0.00702 | −0.02762 | −0.01259 | 0.08773 | 0.03316 | −0.02326 | 0.01052 | −0.000221 | 0.005628 | 0.01608 | −0.0002222 | −0.001084 | 0.03663 | −0.001122 | 0.1512 | 0.03673 | 0.004402 | 0.02043 | AUC HT.EGTA (HT-1080, modulator EGTA): −0.01323; AUC, modulator HT.3MA: 0.01609; AUC, modulator HT.ALLN: 0.001521
8 | COC(=O)[C@@H]1Cc2c([nH]c3ccccc23)C(C)(C)N1C(=O)CCl [CIL79] | −0.05302 | −0.04021 | 0.3909 | 0.3644 | −0.002385 | 0.02794 | 0.2948 | −0.03389 | 0.04764 | −0.02579 | 0.01224 | 0.4052 | −0.004292 | 0.003194 | 0.4488 | 0.005675 | 0.5494 | −0.0705 | 0.4225 | 0.003682 | AUC HT.EGTA (HT-1080, modulator EGTA): 0.02262; effect of ferroptosis inhibitors (iron chelators and lipophilic antioxidants) on lethality in modulatory profiling (HT-1080 and BJeLR): suppression by canonical ferroptosis inhibitors; EC50 (DMSO): 0.271 µM; EC50 (cotreated with MEK inh U0126): 14.3 µM; EC50 (cotreated with antioxidant Atoc): 11.7 µM; EC50 (cotreated with antioxidant BHA): 10.1 µM; EC50 (cotreated with antioxidant BHT): 6.3 µM; EC50 (cotreated with antioxidant Trolox): 10.2 µM; EC50 (cotreated with iron-chelator Deferoxamine): 32.4 µM; EC50 (cotreated with iron-chelator Lmim): 12 µM
9 | Nc1ccccc1NC(=O)c1ccc(CNC(=O)OCc2cccnc2)cc1 [MS275] | 0.0212 | −0.1982 | −0.04868 | −0.1794 | 0.02448 | −0.1189 | −0.1027 | −0.1886 | −0.01058 | −0.01027 | 0.004204 | −0.09728 | 0.0008794 | −0.00333 | −0.01016 | −0.03005 | −0.1653 | −0.1793 | −0.02599 | 0.0222 | AUC HT.EGTA: −0.005811; AUC HT.Nec-1: −0.05557; AUC HT.Pepstatin: −0.01654; AUC HT.SP600125: −0.09903; AUC HT.TLCK: −0.02404; AUC HT.U0126: −0.01884; AUC, modulator HT.3MA: −0.09204; AUC, modulator HT.ALLN: −0.1325
10 | COc1ccc(Nc2ccc3c(c2)=NC2(CCCCC2)[N+]=3[O-])cc1 [CIL9] | −0.003144 | −0.064 | −0.04477 | −0.1803 | −0.02376 | 0.07227 | 0.01754 | −0.03079 | −0.003317 | −0.04358 | 0.02124 | −0.05469 | 0.02617 | −0.03733 | 0.05157 | −0.006502 | 0.05678 | −0.01984 | −0.03599 | −0.00166 | AUC HT.EGTA (HT-1080, modulator EGTA): −0.006848; AUC HT.Nec-1: 0.02133; AUC HT.Pepstatin: −0.002188; AUC HT.SP600125: 0.01016; AUC HT.TLCK: 0.005514; AUC HT.U0126: 0.03915; AUC, modulator HT.3MA: 0.04492; AUC, modulator HT.ALLN: −0.02077

— patent US10947188B2, “Small molecule ferroptosis inducers” (THE TRUSTEES OF COLUMBIA UNIVERSITY IN THE CITY OF NEW YORK, priority 2016, dated 2021)
